Results on 36 compounds are retold here after PubChem BioAssay (NCI).

Structures are written as SMILES. Where “and” joins values, the source holds several entries; their conditions need not be identical. Identical values can stand only once.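 Assay format: 96-well plates, 48-hour exposure. The concentration for 50% growth inhibition is given as GI50. TGI is the concentration that stops growth completely.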

Test in all cases: NCI tumour cell line growth inhibition, 48 h
For test [1], the system named is KM20L2 colon.
Test [2] concerns XF 498 CNS.
Test [3] concerns RXF-631 renal.
Test [4] has as its system DMS 273 small cell lung.
Test [5] deals with M19-MEL melanoma.
Test [6] concerns MDA-MB-231 breast.
Test [7] has as its system MDA-N.
In test [8] the test system is BT-549 breast.
Test [9] relates to MCF7 breast.
Test [10] relates to P388/ADR leukemia.
In test [11] the test system is SN12K1 renal.

As to `CCCCCCCCCOC(=S)NC`, the TGI was found to be 32.5 µM in test [1]; 35.3 µM in [2]; 49.5 µM in test [3]; 33.6 µM in test [4]; 53.9 µM in [5].

Regarding `CCCC(OCC)(OCC)OCC`, the TGI in test [1], in [2], in test [3], in test [4] and in [5] was more than 100 µM throughout.

Take `c1cncc(C2c3[nH]c4ccccc4c3CCN2CCCN2CCCCC2)c1` (configuration not stated): the TGI in test [1], in test [2], in [4] and in test [5] was more than 100 µM each time.

Take `CCOC(=O)C1Cc2c(ccc(OC)c2OC)C(=O)C1N` (configuration not stated): the TGI in [1], in test [2], in [3], in test [4] and in test [5] was more than 100 µM throughout.

`Cc1cc(C)c(C(=O)O)c(N)c1O`: the TGI in test [1], in test [4] and in test [5] was more than 100 µM throughout.

As to `C/C(CC(=O)CCCC(=O)Nc1ccc(Cl)cc1Cl)=N/NC(=O)CC#N`, the TGI in [1], in test [2], in test [3], in test [4] and in test [5] was more than 100 µM each time.

As to `CC(=O)[O-].CC(=O)[O-].[Mn+2].c1ccc(/C(=N\Nc2ccccn2)c2ccccn2)cc1`, the TGI in [1] is 15.8 µM; in test [6], 16.3 µM; in [7], 22.5 µM; in test [8], 14.4 µM; in test [5] it was 14.3 µM. Also, the GI50 in test [6] was 0.0399 µM.

On to `COc1cccc(/C=C(/C(=O)O)c2cc(OC)c(OC)c(OC)c2)c1`, for which the TGI in [1], in test [2], in [3], in test [4] and in test [5] was more than 100 µM throughout.

For the compound `Nn1c(CCCl)nc2c(Br)cc(Br)cc2c1=O`, the TGI in [1] was 65.4 µM; in [2], 56.1 µM; in [4], more than 100 µM; in [5] it was more than 82 µM.

As for `CCOC(=O)/C(=C/c1ccc(OC)c(OC)c1)C(=O)c1ccccc1`, the TGI in test [1] is 38.7 µM; in test [2], 29.9 µM; in [5] it was 44.1 µM.

With `OCCN1CCN(CCO)Cc2ccccc2OCCOc2ccccc2C1`, the TGI in test [1], in [3], in [4] and in [5] was more than 100 µM in each case.

For `COc1cc(C(=O)C/C(CCC(=O)Nc2ccccc2[N+](=O)[O-])=N\NC(=O)C(N)=O)ccc1O`, the TGI in test [1], in test [3], in [4] and in test [5] was more than 100 µM throughout.

`CC1=CC2=C(OCO1)C(=O)c1ccccc1C2=O`: the TGI in test [1] was found to be 46.6 µM; in test [6], 22.4 µM; in test [7], 1.48 µM; in test [4], 26.7 µM; in [5], 3.58 µM.

On to `COC(=O)C1=CC(O)CCC1c1ccc(OC)cc1` (configuration not stated), for which the TGI in test [1], in test [4] and in test [5] was more than 100 µM throughout.

For the compound `CSc1nc(NC2OCC(OC(C)=O)C(OC(C)=O)C2OC(C)=O)c(N=CC=Nc2c(NC3OCC(OC(C)=O)C(OC(C)=O)C3OC(C)=O)nc(SC)n(C)c2=O)c(=O)n1C` (configuration not stated), the TGI in test [1], in test [4] and in test [5] was more than 100 µM each time.

For the compound `C=C(C)C1CC=C(C(=O)O)CC1` (configuration not stated), the TGI in test [1] is more than 5000 µM; in [3], 1620 µM; in test [4], more than 5000 µM; in [5], 2970 µM.

With `CC1(C)CCC(=O)c2c(O)ccc(O)c21`, the TGI in [1], in [4] and in test [5] was more than 100 µM each time.

Turning to `COc1ccc2cc(C(=O)c3ccccc3C(=O)O)ccc2c1`, the TGI in test [1], in test [4] and in test [5] was more than 100 µM in each case.

For the compound `O=c1c(O)c(-c2ccc(O)c(O)c2)oc2cc(O)ccc12`, the TGI in [1] is 73.2 µM; in test [2], 44.1 µM; in [4] it was 28.2 µM; in [5] it was more than 88.1 µM.

Turning to `CCC[CH2][Sn]1([CH2]CCC)[O]C(c2ccccn2)S(=O)(=O)[O]1` (configuration not stated), the GI50 is 6.65 µM in test [1]; 2.08 µM in test [2]; 1.3 µM in test [3]; 3.29 µM in [4]; 4.1 µM in test [5]. For the same compound, the TGI in test [1] stood at 20.2 µM; in test [2], 3.55 µM; in test [3], 2.64 µM; in test [4], 15.5 µM; in [5], 14.4 µM.

On to `CC[O-].CC[O-].[O-]c1ccccc1C=Nc1ccccc1.[O-]c1ccccc1C=Nc1ccccc1.[Ti+4]`, for which the GI50 in test [1] was 23.7 µM; in [2], more than 100 µM; in test [3], more than 100 µM; in [4], 21 µM; in [5], more than 100 µM. For the same compound, the TGI in test [1], in test [2], in test [3], in test [4] and in test [5] was more than 100 µM in each case.

On to `O=C(OC(C(=O)O)C(OC(=O)c1ccccc1)C(=O)O)c1ccccc1` (configuration not stated) (tested in a mixture with another compound), for which the TGI in test [1] was > 100 µM and 88.7 µM; in [6], 95.2 µM; in test [7], 43 µM; in [4], > 100 µM and 14.1 µM; in [8], 27 µM; in [9], more than 100 µM. Also, the TGI in test [5] was more than 100 µM.

As for `CCN1C(C)=NC2C(=O)c3ccccc3C(=O)C21` (configuration not stated), the TGI in test [1] was 68.2 µM; in [2], more than 100 µM; in test [3], more than 100 µM; in test [4], more than 100 µM; in [5], more than 100 µM.

For `CCc1ccccc1NC(=O)/C(CC(=O)c1c(C)n([O-])c2ccccc2[n+]1=O)=N\NS(=O)(=O)c1ccc(C)cc1`, the TGI in test [1] is more than 100 µM; in test [3] it was more than 100 µM; in [4] it was more than 100 µM; in [5], 46.7 µM.

Regarding `C=C(C)C(=O)NC(N)=NC#N`, the TGI in test [1] was 232 µM; in test [2], > 96.6 µM and 303 µM; in [6], 301 µM; in [7], 216 µM; in test [4], 270 µM; in [8], 28.4 µM and 192 µM. The TGI is 248 µM in test [9]; 27.7 µM in [10]; 50.2 µM and 166 µM in [5]; more than 56.4 µM in test [11]. For the same compound, the GI50 in [2] was 126 µM; in test [6], 161 µM; in test [7], 96.8 µM; in test [4], 130 µM; in test [8], 67.9 µM; in [9], 109 µM. The GI50 in test [5] was 42.8 µM.

Turning to `C[C@]12CCC3c4ccc(OC(=O)c5ccccc5)cc4CC[C@H]3C1CC[C@@H]2OC(=O)C12OC1CCC2=O` (some centres not stated), the TGI in test [1] worked out at 11.9 µM; in test [2], 11.1 µM; in [4] it was 9.52 µM; in [5] it was 11.3 µM.

For the compound `CC(=O)CC(=O)N(CCN(C(=O)CC(C)=O)c1ccccc1)c1ccccc1`, the TGI in test [1], in test [2] and in test [5] was more than 100 µM in each case.

On to `C/C(=N\O)c1sc(-n2nc(-c3ccccc3)cc2-c2ccccc2)nc1C`, for which the TGI is 16.1 µM in [1], more than 31.6 µM in test [3], 49.6 µM in test [4] and 20.8 µM in test [5].

Turning to `Cc1nc(NC(=S)NC(=O)c2ccc(Cl)c(Cl)c2)sc1C(=O)/C=C/c1ccccc1[N+](=O)[O-]`, the TGI in [1] came to 35.9 µM; in test [2], 35.9 µM; in test [3] it was 56 µM; in [4] it was 48.3 µM; in test [5] it was 79.7 µM.

`CCOC(=O)C12CCCC1(O)N(NC(=O)c1cccc(Cl)c1)C(C)=C2C(=O)OC` (configuration not stated): the TGI in [1], in [2], in test [3], in test [4] and in test [5] was more than 100 µM in each case.

Take `CC1(C)CC23C(=O)N(c4ccccc4)C(=Nc4ccccc4)NC2=CC(C#N)=C(C#N)C3O1` (configuration not stated): the TGI in test [1], in test [2], in test [3] and in test [5] was more than 100 µM each time.

As to `CC(C#N)c1cn(S(=O)(=O)c2ccccc2)c2ccccc12` (configuration not stated), the TGI in test [1], in [2], in [4] and in test [5] was more than 100 µM in each case.

Take `C[C@]12CCC[C@H](OC=O)C1(O)C[C@H](C(=O)O)CC2` (some centres not stated): the TGI is 35.2 µM in test [1]; more than 100 µM in test [2]; more than 100 µM in test [3]; more than 100 µM in test [4]; more than 100 µM in test [5].

Take `N=c1nc(N)c2cc3c(N)nc(=N)c3cc12`: the TGI is more than 100 µM in [1]; 8.09 µM in [6]; 4.71 µM in [7]; 53.5 µM in test [3]; more than 100 µM in test [4]; 51 µM in test [8]. Moreover, the figures for the TGI in test [9] and in [5] were more than 100 µM and 5.45 µM, respectively.

In the case of `CN1CCC23c4c5ccc(O)c4OC2C(=NN=C2CCC4(O)C6Cc7ccc(O)c8c7C4(CCN6C)C2O8)CCC3(O)C1C5` (configuration not stated), the TGI in [1], in test [2], in [3], in [4] and in test [5] was more than 100 µM throughout.

In the case of `O=C(O)/C(Cl)=C(\Cl)Nc1cccc(C(F)(F)F)c1`, the TGI in [1], in [2], in test [4] and in test [5] was more than 100 µM each time.
